One experiment deals with T1, human CB1 receptors (Homo sapiens, UniProt P21554).
T1 construct: (cDNA clone) CNR01L000
As to the kind of experiment: cAMP assay in HEK-293 cells, hCB1 agonist. Particulars: inhibition of forskolin-stimulated cAMP, HEK-293 cells; for EC50: read-out: hCB1 EC50 (cAMP ag). The experiment is classed as cell-based. The essentials:
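Agonist EC50 taken as concentration giving half inhibition of forskolin-driven cAMP, normalized to forskolin maximum, from sigmoidal curves. Whole HEK-293 cells stably expressing hCB1, in HEPES/BSA-containing HBSS, exposed 30 min at 37° C. to compound with forskolin (90 uM in 3× dilution); cAMP read after lysis.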
In general terms: cAMP levels reflect the balance of adenylyl cyclase and phosphodiesterase activity.

The target in experiment [1] is T2, recombinant human cannabinoid receptor CB2 (Homo sapiens, UniProt P34972).
T2 construct: (cDNA clone) CNR0200000
Kind of experiment: Cannabinoid receptor radioligand binding assay, [3H]-CP 55,940 displacement, hCB2. In short, it runs like this:
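Receptor source: membrane pellet (40,000×g) from transfected cells, stored in HEPES pH 7.4/MgCl2/EDTA/sucrose buffer.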

For a further experiment, the target named is T3, human CB1 (hCB1) (Homo sapiens, UniProt P21554).
T3 construct: (cDNA clone) CNR01L000
Kind of experiment: 35S GTPγS binding assay, hCB1 agonist. The experiment is classed as biochemical. The note with it: GTPγS agonist, HEK-293 membranes; read-out: hCB1 EC50 (GTPyS ag). Background: GTPγS resists hydrolysis and so accumulates on activated G proteins.

As usually defined, the IC50 is the midpoint of a concentration-inhibition curve. By EC50 is commonly meant the concentration that produces a half-maximal response.

Where only a bound is given, the exact number is not on record here.

T2 sequence (P34972 whole entry): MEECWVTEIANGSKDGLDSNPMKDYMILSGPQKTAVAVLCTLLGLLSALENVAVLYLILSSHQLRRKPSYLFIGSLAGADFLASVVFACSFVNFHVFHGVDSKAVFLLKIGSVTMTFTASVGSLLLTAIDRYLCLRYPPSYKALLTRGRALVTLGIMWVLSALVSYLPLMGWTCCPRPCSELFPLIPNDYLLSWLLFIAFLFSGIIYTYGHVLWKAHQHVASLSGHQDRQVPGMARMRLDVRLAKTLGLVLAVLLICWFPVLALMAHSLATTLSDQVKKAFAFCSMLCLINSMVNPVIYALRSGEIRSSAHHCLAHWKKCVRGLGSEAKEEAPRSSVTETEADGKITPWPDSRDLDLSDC
T3 sequence (P21554 whole entry): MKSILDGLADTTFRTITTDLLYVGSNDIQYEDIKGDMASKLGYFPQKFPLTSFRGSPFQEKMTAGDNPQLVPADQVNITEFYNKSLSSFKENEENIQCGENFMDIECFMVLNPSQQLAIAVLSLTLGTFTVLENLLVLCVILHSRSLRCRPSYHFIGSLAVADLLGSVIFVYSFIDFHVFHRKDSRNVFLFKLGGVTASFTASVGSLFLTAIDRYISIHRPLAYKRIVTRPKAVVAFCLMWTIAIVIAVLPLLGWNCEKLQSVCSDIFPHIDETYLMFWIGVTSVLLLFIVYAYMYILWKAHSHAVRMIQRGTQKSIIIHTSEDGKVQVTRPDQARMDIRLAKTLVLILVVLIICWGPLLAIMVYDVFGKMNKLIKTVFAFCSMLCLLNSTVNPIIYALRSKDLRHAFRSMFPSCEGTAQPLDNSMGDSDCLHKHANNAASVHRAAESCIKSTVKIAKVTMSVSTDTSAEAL
T1 sequence (P21554 whole entry): as above

In the case of `Cc1cc2cc(C(=O)c3cccc(Cl)c3Cl)sc2n1CCN1CCN(C)CC1` [Compound 33, (2,3-Dichlorophenyl)(5-methyl-6-(2-(4-methylpiperazin-1-yl)ethyl)-6H-thieno[2,3-b]pyrrol-2-yl)methanone], the “hCB1 EC50 (cAMP ag, nM)” value on human CB1 receptors is reported as “NS (NS means “Not Significant,” which means less than 30% agonist activity when compared to the positive control.)”. The IC50 in experiment [1] fell in the range of 1 to 10 µM. Moreover, the EC50 at human CB1 (hCB1) is less than 0.1 µM.
As for `COc1ccc(C(=O)c2cc3cc(C)n(CCC4CCOCC4)c3s2)cc1` [Compound 82, (4-Methoxyphenyl)(5-methyl-6-(2-(tetrahydro-2H-pyran-4-yl)ethyl)-6H-thieno[2,3-b]pyrrol-2-yl)methanone], the EC50 on human CB1 receptors and on human CB1 (hCB1) was 0.1 to 1 µM in each case. Further, the 50% inhibitory concentration (IC50) in experiment [1] was less than 0.1 µM.
With `COc1ccc(C(=O)c2cc3cc(C)n(CC4CCOCC4)c3s2)cc1` [Compound 62, (4-Methoxyphenyl)(5-methyl-6-((tetrahydro-2H-pyran-4-yl)methyl)-6H-thieno[2,3-b]pyrrol-2-yl)methanone], the EC50 on human CB1 receptors and at human CB1 (hCB1) was 0.1 to 1 µM in each case. For the same molecule, the IC50 in experiment [1] was less than 0.1 µM.
`Cc1cc2cc(C(=O)c3cccc(Cl)c3Cl)sc2n1S(=O)(=O)CC1CCOCC1` [Compound 46, (2,3-Dichlorophenyl)(5-methyl-6-((tetrahydro-2H-pyran-4-yl)methylsulfonyl)-6H-thieno[2,3-b]pyrrol-2-yl)methanone]: the EC50 at human CB1 receptors and at human CB1 (hCB1) was less than 0.1 µM throughout. In addition, the half-maximal inhibitory concentration (IC50) in experiment [1] was less than 0.1 µM.
In the case of `COc1ccc(C(=O)c2cc3cc(C)n(S(=O)(=O)CC4CCOCC4)c3s2)cc1` [Compound 57, (4-Methoxyphenyl)(5-methyl-6-((tetrahydro-2H-pyran-4-yl)methylsulfonyl)-6H-thieno[2,3-b]pyrrol-2-yl)methanone], the EC50 at human CB1 receptors and at human CB1 (hCB1) was less than 0.1 µM throughout. For the same molecule, the IC50 in experiment [1] is less than 0.1 µM.
`COc1ccc(C(=O)c2cc3cc(C)n(S(=O)(=O)N4CCOCC4)c3s2)cc1` [Compound 53, (4-methoxyphenyl)(5-methyl-6-(morpholinosulfonyl)-6H-thieno[2,3-b]pyrrol-2-yl)methanone]: the values for the concentration for a half-maximal effect (EC50) on human CB1 receptors and on human CB1 (hCB1) were less than 0.1 µM and 0.1 to 1 µM, respectively. Moreover, the IC50 in experiment [1] is less than 0.1 µM.
As for `COc1ccc(C(=O)c2cc3cc(C)n(CCN4CCCCC4)c3s2)cc1` [Compound 78, (4-Methoxyphenyl)(5-methyl-6-(2-(piperidin-1-yl)ethyl)-6H-thieno[2,3-b]pyrrol-2-yl)methanone], the EC50 on human CB1 receptors is 1 to 10 µM; at human CB1 (hCB1) it was less than 0.1 µM. Besides, in experiment [1], the IC50 is less than 0.1 µM.
